Earlier results, collected in patent publication US20210052545A1, “COMPOSITIONS AND METHODS OF THEIR USE” (priority 2018, published 2021).

Details: human, in vivo

NC(=O)N1c2ccccc2C=Cc2ccccc21 [carbamezepine]
increase in the risk of blood dyscrasias: five- to eight | patients showing a 25% decrease in white blood cell count: 7%
